Measured values: patent publication US9284322B2, “Nicotinic receptor compounds” (priority 2010, dated 2016)
Where a name gives a salt, the structure may show the parent alone. Read-outs that look alike come from different tables or passages of the source.

Legend:
mice [1] = assay: animal or person; assay type: in vivo, mouse; conditions: for ED50 Tail Flick / Tail Flick, % effect at dose (ED50 column): mice, s.c.; for ED50 Tail Flick: tested 5 min after injection; for ED50: Mus musculus, sc, 5 min, read-out: ED50 Tail Flick; for Tail Flick, % effect at dose (ED50 column): @ 10 mg/kg
Method: (§1) Antinociception was assessed by the tail-flick method of F. E. D'Amour and D. L. Smith (J. Pharmacol. Exp. Ther. 1941, 72, 74-79). A control response (2-4 sec) was determined for each mouse before treatment, and a test latency was determined after drug administration. In order to minimize tissue damage, a maximum latency of 10 sec was imposed. Antinociceptive response was calculated as percent maximum possible effect (% MPE), where % MPE=[(test−control)/(10−control)]×100. Groups of eight to twelve animals were used for each dose and for each treatment. […] Eight to twelve mice were treated per dose and a minimum of four doses were performed for dose-response curve determination.

mice [2] = assay: animal or person; assay type: in vivo, mouse; conditions: for ED50: Mus musculus, sc, 0.5 h, read-out: ED50 Hypothermia
Method: Rectal temperature was measured by a thermistor probe (inserted 24 mm) and digital thermometer (Yellow Springs Instrument Co., Yellow Springs, Ohio). […] The difference in rectal temperature before and after treatment was calculated for each mouse. The ambient temperature of the laboratory varied from 21-24° C. from day to day.

mice [3] = assay type: in vivo, mouse; conditions: for AD50 Tail Flick / Tail Flick, % effect at dose: mice; for AD50 Tail Flick: antagonist test; for Tail Flick, % effect at dose: @ 100 μg/kg
Method: as §1
(§2) Table 6 provides data for a number of compounds of the invention that were tested according to the assays described above.

[4] = molecular target: homomeric nAChRs containing the alpha7 subunit (α7) (Rattus norvegicus (Rat), UniProt Q05941); assay: biochemical; assay type: binding
mice [5] = assay type: in vivo, mouse; conditions: for AD50 Hot Plate: antagonist test
Method: (§3) Mice were placed into a 10 cm wide glass cylinder on a hot plate (Thermojust Apparatus) maintained at 55.0° C. Two control latencies at least […] apart were determined for each mouse. […] Antinociceptive response was calculated as percent maximum possible effect (% MPE), where % MPE=[(test−control)/40−control)×100]. The reaction time was scored when the animal jumped or licked its paws.
as §2

[6] = molecular target: heteromeric nAChRs containing alpha and beta subunits (αβ; alpha4 beta2 predominant) (Rattus norvegicus, UniProt P09483+P12390); assay type: binding; conditions: read-out: αβ [3H]Epibatidine (Ki)
Method: The alpha4 beta2 subtype is the predominant nAChR present in brain tissue used in this assay.
Adult male rat cerebral cortices (Pelfreeze Biological, Rogers, Ark.) were homogenized in 39 volumes of ice-cold 50 mM Tris buffer (pH 7.4 at 4° C.) containing 120 mM NaCl, 5 mM KCl, 2 mM CaCl2, and 1 mM MgCl2 and sedimented at 37,000 g for 10 min at 4° C. The supernatant was discarded, the pellet resuspended in the original volume of buffer, and the wash procedure repeated twice more. After the last centrifugation, the pellet was resuspended in 1/10 its original homogenization volume and stored at −80° C. until needed. […] After a 4-h incubation period at room temperature, the samples were vacuum-filtered over GF/B filter papers presoaked in 0.03% polyethylenimine using a Brandel 48-well harvester and washed with 6 mL of ice-cold buffer. The amount of radioactivity trapped on the filter was determined by standard liquid scintillation techniques in a TriCarb 2200 scintillation counter (Packard Instruments, Meriden, Conn.) at approximately 50% efficiency. The binding data were fit using the nonlinear regression analysis routines in Prism (Graphpad, San Diego, Calif.). The Ki values for the test compounds were calculated from their respective IC50 values using the Cheng-Prusoff equation.

mice [7] = assay: animal or person; assay type: in vivo, mouse; conditions: for ED50: Mus musculus, sc, read-out: ED50 Spontaneous Activity
Method: (§4) Interruptions of the photocell beams (two banks of eight cells each) were then recorded for the next 10 min. Data were expressed as number of photocell interruptions.

mice [8] = assay: animal or person; assay type: in vivo, mouse; conditions: for ED50 Hot Plate / Hot Plate, % effect at dose (ED50 column): mice, s.c.; for ED50 Hot Plate: tested 5 min after injection; for ED50: Mus musculus, sc, 5 min, read-out: ED50 Hot Plate; for Hot Plate, % effect at dose (ED50 column): @ 10 mg/kg
Method: Mice were placed into a 10 cm wide glass cylinder on a hot plate (Thermojust Apparatus) maintained at 55.0° C. Two control latencies at least […] apart were determined for each mouse. The normal latency (reaction time) was 8 to 12 sec. Antinociceptive response was calculated as percent maximum possible effect (% MPE), where % MPE=[(test−control)/40−control)×100]. The reaction time was scored when the animal jumped or licked its paws.

mice [9] = assay: Functional agonist tests (nAChR animal assays); conditions: mouse, in vivo
Method: as §1, §3, §4
Rectal temperature was measured by a thermistor probe (inserted 24 mm) and digital thermometer (Yellow Springs Instrument Co., Yellow Springs, Ohio). […]

[10] = mice, s.c., rectal temperature 30 min after injection
[11] = rat cerebral cortex homogenate, 40-50 pM [125I]MLA, read-out: α7 [125I]iodoMLA (Ki)
[12] = mice, s.c., 5 min after administration, recorded for 10 min

homomeric nAChRs containing the alpha7 subunit (α7), sequence (Q05941 23-502 limits assumed): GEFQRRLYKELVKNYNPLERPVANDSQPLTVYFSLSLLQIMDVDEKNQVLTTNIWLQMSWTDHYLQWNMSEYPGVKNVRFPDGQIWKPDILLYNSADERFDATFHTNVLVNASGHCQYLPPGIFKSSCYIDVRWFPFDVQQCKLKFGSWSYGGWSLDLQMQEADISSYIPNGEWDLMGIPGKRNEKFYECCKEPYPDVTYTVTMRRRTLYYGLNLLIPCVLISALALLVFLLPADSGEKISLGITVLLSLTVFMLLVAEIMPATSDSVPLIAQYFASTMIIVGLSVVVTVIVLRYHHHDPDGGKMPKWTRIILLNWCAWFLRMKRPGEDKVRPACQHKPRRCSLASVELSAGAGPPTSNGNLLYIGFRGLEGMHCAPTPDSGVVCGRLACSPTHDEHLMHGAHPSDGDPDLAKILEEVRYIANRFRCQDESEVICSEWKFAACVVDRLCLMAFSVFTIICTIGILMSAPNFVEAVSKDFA

Structure (SMILES)	ED50 Hypothermia (mice [2]; [10])	AD50 Tail Flick (mice [3])	Ki [4, 11] [nM]	Ki [6] [nM]	ED50 Spontaneous Activity (mice [7]; [12])	Tail Flick, % effect at dose (ED50 column) (mice [1]) [% @ 10]	Hot Plate, % effect at dose (ED50 column) (mice [8]) [% @ 10]	other results
Fc1ncc(C2CC3CCC2N3)cc1-c1cccnc1 (centres unmarked)	3.7 (2.9-4.5) mg/kg	3 (0.5-24) μg/kg	5500 ± 1420	0.35 ± 0.038	0.69 (0.4-12.8) mg/kg			ED50 Tail Flick (mice [1]): 4.9 (3.6-6.7) mg/kg; Hot Plate, % effect at dose (mice [5]; @ 1000 μg/kg): 10% @ 1000; ED50 Hot Plate (mice [8]): 5 (3.7-6.7) mg/kg
c1ncc(-c2cncc(C3CC4CCC3N4)c2)cn1 (stereo not drawn) [H, 2-exo-3′-(Pyrimidin-5-yl)deschloroepibatidine fumarate]								ED50 (mice [1]): 1.5 mg/kg; ED50 (mice [2]): 0.6 mg/kg; Tail Flick, % effect at dose (mice [3]): 15% @ 100; Ki [4]: 32.5 ± 1.3 nM; Hot Plate, % effect at dose (mice [5]; @ 100 μg/kg): 0% @ 100; ED50 (mice [7]): 0.32 mg/kg; ED50 (mice [8]): 1.63 mg/kg
COc1ccc(-c2cc(C3CC4CCC3N4)cnc2F)cn1 (centres unmarked)	0.77 (0.51-1.2) mg/kg	21 (3-125) μg/kg	524 ± 110	0.13 ± 0.027	0.53 (0.19-1.1) mg/kg			ED50 Tail Flick (mice [1]): 4.22 (3-5.3) mg/kg; Hot Plate, % effect at dose (mice [5]; @ 100 μg/kg): 0% @ 100; ED50 Hot Plate (mice [8]): 1.72 (0.9-3.4) mg/kg
Fc1cc(-c2cc(C3CC4CCC3N4)cnc2F)ccn1 (centres unmarked)	1.58 (0.97-2.1) mg/kg	4 (0.1-70) μg/kg	7300 ± 150	0.067 ± 0.01	0.17 (0.08-1.5) mg/kg	5	18	AD50 Hot Plate (mice [5]): 117 (110-1100) μg/kg
c1ncc(-c2cncc(C3CC4CCC3N4)c2)cn1 (stereo not drawn) (as salt: fumarate) [H, 2-exo-3′-(Pyrimidin-5-yl)deschloroepibatidine fumarate]								melting point: 172 to 176 °C
Nc1cc(-c2cc(C3CC4CCC3N4)cnc2F)ccn1 (centres unmarked)	1.87 (0.1-3.5) mg/kg	9 (0.4-19) μg/kg	719 ± 101	0.13 ± 0.005	0.61 (0.04-9.1) mg/kg	11	12	Hot Plate, % effect at dose (mice [5]; @ 10,000 μg/kg): 10% @ 10,000
Fc1ncc(C2CC3CCC2N3)cc1-c1cncnc1 (stereo not drawn) [F, 2-exo-2′-Fluoro-3′-(pyrimidin-5-yl)deschloroepibatidine fumarate]		0.24 µg/kg						ED50 (mice [1]): 2.15 mg/kg; ED50 (mice [2]): 0.25 mg/kg; Ki [4]: 1930 nM; Hot Plate, % effect at dose (mice [5]; @ 100 μg/kg): 33% @ 100; ED50 (mice [7]): 0.15 mg/kg; ED50 (mice [8]): 1.2 mg/kg
Fc1ncc(C2CC3CCC2N3)cc1-c1cncnc1 (stereo not drawn) (as salt: fumarate) [2-exo-2′-Fluoro-3′-(pyrimidin-5-yl)deschloroepibatidine fumarate]								melting point: 160 to 163 °C
Clc1ncc(C2CC3CCC2N3)cc1-c1cncnc1 (stereo not drawn) (as salt: fumarate) [Cl, 2-exo-2′-Chloro-3′-(pyrimidin-5-yl)deschloroepibatidine fumarate]								melting point: 199 to 203 °C
c1cnc2cc3c(cc2n1)[C@@H]1CNC[C@H]3C1 [varenicline, reference compound]		0.2 µg/kg				11	10	ED50 (mice [2]; [10]): 2.8 mg/kg; functional antagonism in the tail-flick test (in words) (mice [3]; mouse, in vivo): functional antagonists; AD50 Hot Plate (mice [5]): 470 µg/kg; activity in one or more of the functional agonist tests (in words) (mice [9]): partial agonists; ED50 (mice [7]; [12]): 2.1 mg/kg
Fc1ncc(C2CC3CCC2N3)cc1-c1ccncc1 (centres unmarked)	1.69 (1.1-2.6) mg/kg	12 (10-172) μg/kg	9700 ± 2400	0.12 ± 0.03	0.38 (0.2-2.7) mg/kg	13	40	AD50 Hot Plate (mice [5]): 290 (19-991) μg/kg
Fc1ncc(C2CC3CCC2N3)cc1-c1ccc(Cl)nc1 (centres unmarked)	3.11 (1.5-5.1) mg/kg	9 (2-38) μg/kg	6600 ± 731	0.063 ± 0.08	1.58 (0.5-4.4) mg/kg	10	27	AD50 Hot Plate (mice [5]): 2001 (297-3610) μg/kg
Fc1ncc(C2CC3CCC2N3)cc1-c1ccnc(Cl)c1 (centres unmarked)	2.74 (1.89-3.5) mg/kg	320 (45-3262) μg/kg	> 10000	1.18 ± 0.14	1.01 (0.27-3.7) mg/kg	11	19	AD50 Hot Plate (mice [5]): 1370 (180-1430) μg/kg
Fc1cc(-c2cncc(C3CC4CCC3N4)c2)ccn1 (centres unmarked) (as salt: fumarate)								melting point: 210 to 214 °C
Clc1ncc(C2CC3CCC2N3)cc1-c1cncnc1 (stereo not drawn) [Cl, 2-exo-2′-Chloro-3′-(pyrimidin-5-yl)deschloroepibatidine fumarate]								ED50 (mice [1]): 0.28 mg/kg; ED50 (mice [2]): 0.03 mg/kg; Tail Flick, % effect at dose (mice [3]): 5% @ 100; Ki [4]: 170 ± 64 nM; Hot Plate, % effect at dose (mice [5]; @ 100 μg/kg): 2% @ 100; ED50 (mice [7]): 0.027 mg/kg; ED50 (mice [8]): 0.25 mg/kg
Clc1ccc(C2CC3CCC2N3)cn1 (single isomer, unassigned; (-)) [(−)-epibatidine, reference compound]								ED50 (mice [8]): 0.004 mg/kg
COc1cc(-c2cncc(C3CC4CCC3N4)c2)ccn1 (centres unmarked) (as salt: fumarate)								melting point: 160 to 164 °C
Fc1ccc(-c2cc(C3CC4CCC3N4)cnc2F)cn1 (centres unmarked)	0.68 (0.52-1.1) mg/kg		4850 ± 1800	0.049 ± 0.02	0.38 (0.13-1.1) mg/kg			ED50 Tail Flick (mice [1]): 3.6 (2.7-4.7) mg/kg; Tail Flick, % effect at dose (mice [3]): 1% @ 100; Hot Plate, % effect at dose (mice [5]; @ 100 μg/kg): 1% @ 100; ED50 Hot Plate (mice [8]): 3.27 (2.1-5.3) mg/kg
CN1CCCC1c1cccnc1 (centres unmarked) [Nicotine, reference compound]								ED50 (mice [1]): 1.3 mg/kg; ED50 (mice [2]): 1 mg/kg; ED50 (mice [7]): 0.5 mg/kg; ED50 (mice [8]): 0.65 mg/kg
COc1cc(-c2cc(C3CC4CCC3N4)cnc2F)ccn1 (centres unmarked)			7900 ± 1080	0.04 ± 0.012				
Nc1ccc(-c2cc(C3CC4CCC3N4)cnc2F)cn1 (centres unmarked)	2.8 (2-3.8) mg/kg	30 (3-35) μg/kg	1470 ± 203	0.25 ± 0.033	1.84 (0.5-6.3) mg/kg	5	8	Hot Plate, % effect at dose (mice [5]; @ 10 μg/kg): 50% @ 10
